pIC50: −log10 of the molar value.
Legend:
[1] = test system: PNT1A; test: Crystal violet proliferation assay, PNT1A; assay type: cell-based; conditions: Homo sapiens, non-tumorigenic, 72 h treatment, mean
Description: (§1) Cells were seeded at a density of 2 × 10^4 in 96-well plates and left to adhere overnight before treatment with the inhibitors. After 72 h of treatment, cells were fixed in 2% paraformaldehyde for 1 h, washed 3× with ddH2O and left to dry. 0.04% crystal violet (dissolved in ddH2O) was added to each well and the plates incubated for 1 h. The plates were again washed 3× with ddH2O and left to dry. Crystal violet was solubilised with 10% acetic acid (1 h at room temperature with rocking) and the optical density of each well measured at 570 nm with a plate reader (CLARIOstar, BMG Labtech, Germany).
(§2) (A) The non-tumorigenic controls PNT1A and BPH1, and prostate cancer cell lines LNCaP, C42, C42B, 22RV1, DU145 and PC3 were seeded 24 h before treatment with a dose range of the thieno[2,3-b]pyridine compounds (DJ97, DJ144, DJ145, DJ154 and DJ160). After 72 h of treatment, cells were fixed, stained with crystal violet and absorbance measured using a spectrophotometer microplate reader (FLUOstar Omega) at 490 nm. Mean ± SE of three independent repeats (six replicates for each concentration per experiment). (B) Western blotting was performed on lysates from the different cell lines and membranes probed with antibodies specific for PLCγ1, PLCγ2, AR and ⍺-tubulin. (C) PC3 cells were seeded in 10 cm plates and treated with a dose range of DJ160 for 24 h. Cells were collected and PLC activity measured, and enzymatic activity calculated. Mean of 3 repeats ± SD. TEXT PRINTED IN THE PICTURE: (C) DJ160: PLC activity (mol/min): 0.19 ± 0.005 (DJ160 (μM): 0); PLC activity (mol/min): 0.19 ± 0.005 (DJ160 (μM): 0.01); PLC activity (mol/min): 0.17 ± 0.005 (DJ160 (μM): 0.1); PLC activity (mol/min): 0.23 ± 0.004 (DJ160 (μM): 1); PLC activity (mol/min): 0.22 ± 0.010 (DJ160 (μM): 10)

[2] = test system: BPH1; test: Crystal violet proliferation assay, BPH1; assay type: cell-based; conditions: BPH1, non-tumorigenic, 72 h treatment, mean; for pIC50: Homo sapiens, BPH-1
Description: as §1, §2

[3] = test system: LNCaP; test: Crystal violet proliferation assay, LNCaP; assay type: cell-based; conditions: AR positive, 72 h treatment, mean
Description: as §1, §2

[4] = test system: C42; test: Crystal violet proliferation assay, C42; assay type: cell-based; conditions: C42, AR positive, 72 h treatment, mean
Description: as §1, §2

[5] = test system: C42B; test: Crystal violet proliferation assay, C42B; assay type: cell-based; conditions: AR positive, 72 h treatment, mean
Description: as §1, §2

[6] = test system: 22RV1; test: Crystal violet proliferation assay, 22RV1; assay type: cell-based; conditions: Homo sapiens; 22RV1, AR positive; 72 h treatment; mean
Description: as §1, §2

[7] = test system: DU145; test: Crystal violet proliferation assay, DU145; assay type: cell-based; conditions: Homo sapiens, DU-145; DU145, AR negative; 72 h treatment; mean
Description: as §1, §2

[8] = test system: PC3; test: Crystal violet proliferation assay, PC3; assay type: cell-based; conditions: PC3, AR negative, 72 h treatment, mean
Description: as §1, §2

[9] = test system: PC3 cells; test: Cell cycle analysis (PI staining, flow cytometry); assay type: cell-based; conditions: 1 μM, 24 h
Description: Cells were seeded in 12-well plates, incubated overnight and treated with the inhibitors. The cells were incubated for 72 h before harvesting. Cells were pelleted (200 g, 5 min) and washed with PBS. The wash was removed and cells fixed with 70% EtOH, added dropwise with agitation. The cells were incubated at 4°C overnight, pelleted, washed with PBS and resuspended in PBS containing PI and RNase A, as previously described ([Brooke et al. 2011]). The percentage of cells in each phase of the cell cycle was subsequently quantified using an Accuri C6 Flow Cytometer (BD Biosciences, USA).
Figure 3 The thieno[2,3-b]pyridine compounds promote G2/M cell cycle arrest in PC3 cells. PC3 cells were seeded at 30% confluence for 48 h and treated with 1 μM of the compounds (97, 144, 145, 154 and 160) or DMSO for (A) 24, (B) 48 and (C) 72 h. Cells were PI stained and DNA content measured using flow cytometry. The percentage of cells in each phase was calculated and representative histograms generated using the ACCURI C6 software (BD Biosciences). Data are the mean of three independent repeats.

[10] = test system: PLC; test: PLC activity assay in treated PC3 cells; assay type: cell-based; conditions: 24 h; for PLC activity: mean of 3 repeats ± SD, 0 μM control 0.19 ± 0.005
Description: PC3 cells were grown in 10 cm dishes and treated with different concentrations of DJ160 for 24 h. Cells were collected and enzymatic activity quantified using a PLC Activity Assay Kit (Sigma Aldrich), following the manufacturer’s instructions.
as §2

[11] = test system: PC3 cells; test: Fluorescent imaging: multinucleation and cell size; assay type: cell-based; conditions: 1 μM, 24 h, no multinucleation without inhibitors
Description: Cells were seeded on glass coverslips and incubated overnight before treatment with the compounds. Cells were incubated for 24 h with the thieno[2,3-b]pyridines and fixed with 2% paraformaldehyde for 15 min at RT. Cells were washed 3 times with PBS and 0.1% Triton X-100 in PBS added for 10 min at RT. The washes were repeated and cells blocked with 1% BSA in 0.5% Tween for 30 min. Primary antibody (α-alpha-tubulin, clone B-5-1-2, Sigma Aldrich, USA) was diluted in the block buffer, added to the cells and incubated for 1 h. The cells were washed 3 times with PBS containing 0.5% Tween and secondary antibody applied (anti-mouse Alexa Fluor 568, Abcam, UK). […] To calculate the percentage of cells with multinucleation, ten random fields of view were imaged per slide using low magnification (10×) and the number of cells with more than 1 nucleus counted. Alterations in cell size were quantified using Fiji ([Schindelin et al. 2012]).
Figure 5 The thieno[2,3-b]pyridine compounds promote multinucleation and lead to an increase in cell size. […] Cells were PI stained and DNA content was measured using flow cytometry. […] Confocal microscopy was performed and five random images were taken for each treatment to quantify (C) percentage multinucleation and (D) relative cell size. […]

[12] = test system: cultured human prostate tumours; test: Patient-derived tumour explants, qPCR of PCNA (proliferation marker); assay type: cell-based; conditions: explants of four patients, 100 nM DJ160, 48 h
Description: (§3) Explant experiments were undertaken using published methodology ([Centenera et al. 2018]). Biopsy tissue from prostate cancer patients was immediately placed in ice-cold medium straight from surgery. In the lab, tissue was dissected and seeded onto a sponge (SSP101010-32, Surgispon, Anser Medical) in 24-well plates. The explants were treated with compound 160 (100 nM) or the antiandrogen enzalutamide (10 μM) and incubated at 37°C for 48 h.
Explants were snap frozen until RNA was extracted using a Monarch RNA extraction kit (NEB), following disruption of frozen tissue utilising mechanical disruption and enzymatic digestion with proteinase K. Then, 2 μg of RNA was reverse transcribed using Precision Nanoscript2 RT Kit (Primer Design, UK). Changes in gene expression were measured using SYBR Green Fast Master Mix (Life Technologies, USA) and QuantStudio 7 Flex Real-Time PCR System (Applied Biosystems, USA). […]
Figure 7 Thieno[2,3-b]pyridine DJ160 inhibits activity in cultured human prostate tumours. […] (A) RNA was extracted and qPCR was performed to quantify the expression of PCNA, used as a marker of proliferation. (B) Samples were formalin-fixed and immunohistochemistry performed for cleaved caspase 3 and the number of cells per field counted. […]

[13] = test system: cultured human prostate tumours; test: Patient-derived tumour explants, immunohistochemistry of cleaved caspase 3; assay type: cell-based; conditions: explants of four patients, no/minimal apoptosis in patients 1 and 2
Description: as §3
The explants were formalin fixed and wax embedded. Immunohistochemistry was performed to investigate the expression of cleaved caspase 3 (Cell Signalling 9661S (1/200)) as a marker of apoptosis. Protein expression was detected using the REAL EnVision Detection System (Peroxidase/DAB, K500711-2, DAKO).
Figure 7 Thieno[2,3-b]pyridine DJ160 inhibits activity in cultured human prostate tumours. Tumours were dissected into 1 mm^3 pieces then treated with the drugs (100 nM DJ160 and 10 μM enzalutamide (ENZA)) or vehicle control (DMSO, VC) and incubated for 48 h. (A) RNA was extracted and qPCR was performed to quantify the expression of PCNA, used as a marker of proliferation. (B) Samples were formalin-fixed and immunohistochemistry performed for cleaved caspase 3 and the number of cells per field counted. Example images for patient 3 are provided (20× magnification).

[14] = test system: breast cancer cell lines; conditions: across various breast cancer cell lines; cited from earlier work

| Compound | pIC50 [1] | IC50 (nM) [2] | pIC50 [2] | pIC50 ([3]; Homo sapiens, 72 h) | pIC50 ([4]; C4-2, 72 h) | pIC50 [5] | pIC50 [6] | pIC50 [7] | pIC50 ([8]; Homo sapiens, 72 h) | G2/M cell cycle arrest [9] | also measured |
| --- | --- | --- | --- | --- | --- | --- | --- | --- | --- | --- | --- |
| Nc1c(C(=O)Nc2cccc(Cl)c2)sc2nc3c(cc12)C(=O)CCC3 [DJ97] | 6.49 | μM range | 5.45 | 6.32 | 6.48 | 6.48 | 6.51 | 5.86 | 6.24 | – | – |
| COc1cccc(NC(=O)c2sc3nc4c(cc3c2N)C(=O)CCC4)c1 [DJ144] | 6.62 | – | 6.35 | 7.23 | 6.73 | 6.82 | 6.73 | 6.57 | 6.67 | most pronounced effect | – |
| Nc1c(C(=O)Nc2cccc(Br)c2)sc2nc3c(cc12)C(=O)CCC3 [DJ145] | 6.15 | μM range | 5.36 | 6.57 | 6.33 | 6.64 | 6.30 | 5.71 | 6.17 | – | – |
| Nc1c(C(=O)Nc2cccc(Cl)c2)sc2nc3c(cc12)CCCC3 [DJ154] | 6.04 | – | 6.09 | 6.35 | 6.61 | 6.29 | 6.28 | 6.18 | 6.14 | – | – |
| Cc1c(Cl)cccc1NC(=O)c1sc2nc3c(cc2c1N)C(=O)CCC3 [DJ160] | 7.08 | – | 6.82 | > 7.30 | > 7.30 | 7.27 | 7.00 | 7.08 | > 7.30 | most pronounced effect | pIC50 [3]: 7.35; pIC50 [4]: 7.54; pIC50 [8]: 7.33; PLC activity ([10]; DJ160 0.01 μM): 0.19 ± 0.005 mol/min; PLC activity ([10]; DJ160 0.1 μM): 0.17 ± 0.005 mol/min; PLC activity ([10]; DJ160 1 μM): 0.23 ± 0.004 mol/min; PLC activity ([10]; DJ160 10 μM): 0.22 ± 0.010 mol/min; effect upon pan-PLC activity ([10]; dose range): little effect; percentage of cells with multinucleation [11]: more than 30%; reduction of PCNA expression compared to untreated samples [12]: approximately 80%; cleaved caspase 3-positive cells (apoptosis) ([13]; 100 nM DJ160, 48 h): increase in the percentage of cleaved caspase-positive cells in patient samples 3 and 4; pIC50 [14]: < 7.00 |
| CNC(=O)c1ccc(N2C(=S)N(c3ccc(C#N)c(C(F)(F)F)c3)C(=O)C2(C)C)cc1F [enzalutamide, reference compound] | – | – | – | – | – | – | – | – | – | – | cleaved caspase 3-positive cells (apoptosis) ([13]; 10 μM enzalutamide, 48 h): increase in the percentage of cleaved caspase-positive cells in patient samples 3 and 4 |

Reference: publication PMC12243099, “Thieno[2,3-b]pyridine compounds potently inhibit prostate cancer growth and motility” (Endocrine Oncology, 2025)
